How the values were obtained:
[1] = Serum vancomycin plateau level in patients receiving continuous infusion vancomycin mixed in the CRRT solution; format: in vivo, human
Protocol: According to embodiments disclosed herein, drug concentrations in the solution(s) are adjusted in vitro based on an initial serum plateau level, and subsequent levels are thereafter obtained based on these changes. […] See step 70.
In this study, CRRT was performed using a Prismaflex System machine (Gambro, Lakewood, CO). The mode of dialysis, continuous venovenous hemofiltration or hemodiafiltration was dictated by an attending nephrologist prescribing the dialysis. The
(§1) Prismaflex machine was initially primed with two 1-L bags of normal saline and 5,000 units of heparin. The machine was then primed with normal saline, 5% albumin, or a blood exchange (blood is transfused to the patient as the prime is wasted) depending on the percent extracorporeal volume of the patient with a dialysis solution utilizing HF1000, AN69 dialysis filters. Commercially available dialysate and replacement solutions were used for all CRRT patients. The CRRT circuit and solutions were inspected and observed for adverse events, such as specifically for precipitation and clotting. The CRRT solution(s) and circuit were visually inspected after addition of the CRRT circuit prior to the final connection to the patient.
The median eGFR on ICU admission was 39.9 mL/min/1.73 m 2 (25th to 75th IQR, 25.8-53.4 mL/min/1.73 m 2) compared with a median eGFR of 26.7 mL/min/1.73 m 2 (25th to 75th IQR, 18.8-42.7 mL/min/1.73 m 2) with the initiation of CRRT.

[2] = Stability of vancomycin with components of the CRRT solution; format: physicochemical; details: in CRRT solution
Text: The CRRT or like solution may be prepared at the time it is needed following current standard operating procedures for sterile product compounding or as discussed below in greater detail. The amount of vancomycin, for instance, to be added to the solution is described below in greater detail. Accordingly, this mixed solution is provided for being infused for the duration it is prescribed for CRRT. […] Other drugs may be stable for less or more time.

[3] = Inspection of CRRT solution(s) and circuit for precipitation and clotting after mixing vancomycin; details: on mixing the vancomycin in the CRRT solution
Text: Upon initiation of CRRT, the CRRT circuit may be inspected and evaluated on an hourly basis according to current standards of care. A part of the hourly standard of care inspection may involve inspection of the CRRT solution for precipitation and crystallization. This assessment should continue for the period of time the patient is receiving CRRT and vancomycin or other antibiotics is mixed in the CRRT solution.
as §1

Streptococcus pneumoniae = assay: Follow-up cultures in patient 4 on vancomycin via CRRT; format: in vivo, human; details: vancomycin continued 2 days
Text: (§2) Only two patients, patients 4 and 9, had cultures that were positive for a gram-positive organism. […] Subsequent cultures obtained from the blood and the respiratory system were negative. The isolate of Streptococcus pneumoniae was penicillin sensitive, and the patient was changed to ampicillin for the remainder of the treatment course.

[4] = tested on: methicillin-sensitive Staphylococcus aureus; assay: Follow-up cultures in patient 9 on vancomycin via CRRT; format: in vivo, human; details: day 6 of vancomycin therapy, blood culture also negative
Text: as §2

[5] = escalation in CRRT intensity from hemofiltration to hemodiafiltration; Joy et al. 1998; cited from earlier work

SMILES: CN[C@H](CC(C)C)C(=O)N[C@H]1C(=O)N[C@@H](CC(N)=O)C(=O)N[C@H]2C(=O)N[C@H]3C(=O)N[C@H](C(=O)N[C@H](C(=O)O)c4cc(O)cc(O)c4-c4cc3ccc4O)[C@H](O)c3ccc(c(Cl)c3)Oc3cc2cc(c3O[C@@H]2O[C@H](CO)[C@@H](O)[C@H](O)[C@H]2O[C@H]2C[C@](C)(N)[C@H](O)[C@H](C)O2)Oc2ccc(cc2Cl)[C@H]1O [Vancomycin, vancomycin]
- median (25th to 75th IQR) vancomycin serum plateau concentration ([1]; 11 patients, median solution concentration 25 mg/L): 21.8 (20.9-25)
- Vancomycin Level, IQR, 25 ([1]; all levels of 11 patients): 20.9 µg/mL
- Vancomycin Level, IQR, 75 ([1]; all levels of 11 patients): 25 µg/mL
- Vancomycin Level, Min ([1]; all levels of 11 patients): 12.9 µg/mL
- Vancomycin Level, Mean ([1]; all levels of 11 patients, mean CRRT solution concentration 26.5 μg/mL): 22.3 µg/mL
- Vancomycin Level, Median ([1]; all levels of 11 patients, median CRRT solution concentration 25 μg/mL): 21.8 µg/mL
- attainment of therapeutic vancomycin serum plateau levels ([1]; all patients, regardless of CRRT modality, dose and flow rate): all patients achieved therapeutic vancomycin serum plateau levels
- concentration at 8 h ([1]; human, serum, other: continuous infusion mixed in the CRRT solution, the one patient below 15 mg/L at 8 hours): 12900 ng/mL
- therapeutic serum level after adjustment of the CRRT solution concentration ([1]; same patient, within 16 hours of starting CRRT): 23.5 mg/L
- patients achieving a therapeutic serum vancomycin level within 8 hours ([1]; ten of eleven patients, within 8 hours of starting mixing vancomycin into the CRRT solution, target 15-30 mg/L): 91%
- stable with components of the CRRT solution [2]: at least 96 hours
- adverse events regarding precipitation of vancomycin with CRRT solution(s) or circuit [3]: no adverse events were observed
- subsequent cultures from blood and respiratory system (Streptococcus pneumoniae): negative
- repeat respiratory culture [4]: negative
- increase in vancomycin clearance [5]: greater than or equal to 30%

From US20240001012A1, “SOLUTIONS FOR […] OF A DRUG AD[…] […] AND DOSING ALGORITHM THEREFOR” (DREXEL UNIVERSITY, priority 2017, published 2024)
